{"source": "patent US20260345459A1", "about": "“SUBMICRON PARTICLE COMPRISING A PEPTIDE ACTIVE, PREPARATION METHOD AND USES THEREOF, IN PARTICULAR COSMETIC USES” (Sederma, priority 2023, published 2026)", "key": {"[1]": {"assay": "Accelerated stability at 40 °C", "assay_type": "physicochemical", "method": "(§1) For these studies, encapsulated peptide formulations were stored in HDPE polyethylene bottles at the study temperature (room temperature and 40 °C). At each analysis time, a new 30 g bottle is opened for the first time. All the samples are handled under regular laboratory lighting and normal air conditions. No inert gas is used to fill the bottles or to handle the samples.\nThe study was performed at 40 °C. At this temperature, degradation is accelerated. There is a correlation with degradation at room temperature, 90 days at 40 °C being equivalent to 1 year at room temperature. This study thus constitutes a good indicator of the stability of the encapsulated peptide suspensions according to the invention."}, "[2]": {"assay": "Characterization of the obtained suspensions at T0 (macroscopic, pH, laser diffraction particle size, polydispersity, HPLC peptide content)", "assay_type": "physicochemical", "settings": "different derivatization, peptide 100 ppm", "method": "For each suspension, the presence or absence of heterogeneous aspects, phase separation or precipitation, and colour are visually assessed through a colourless transparent bottle without the use of any instruments. The viscosity is also estimated visually in comparison with water.\nThe pH was measured directly in the formulation (without dilution) using a calibrated potentiometer (pH 4.0 and 7.0).\nLaser diffraction technique (Mastersizer 3000™, Malvern). The suspension is added directly to the water-containing wet dispersion unit until darkening in the 2-8% range. The refractive index used is 1.456, corresponding to the index of wax, i.e. cetyl palmitate. The results are expressed in D50 corresponding to particle diameters at the 50th percentile of the particle size distribution curve, representing the mean particle size.\nA range of less than 2 is considered as a narrow distribution, describing particle size homogeneity.\nThis is quantified using an HPLC chromatography method, with a column, mobile phase and detection appropriate to each peptide active agent. An external calibration curve is produced.\nEach suspension is treated by liquid/liquid extraction of a mixture composed of isopropanol, a pH 2-2.5 buffer and an organic solvent (acetonitrile or methanol) depending on the peptide to be dosed.\nFor Pal-KTTKS, Pal-GHK, Pal-GQPR and Pal-VGVAPG peptides, quantification is performed, for example, by HPLC at 35 °C using a Waters Symmetry™ C18 5 μm 4.6×150 mm HPLC column, a mobile phase consisting of an eluent of 99.8/0.1/0.1 v/v/v water/orthosphoric acid/triethylamine and acetonitrile. Detection is performed at 210 nm.\nFor the Pal-PP peptide, for example, analysis is performed at 40 °C using a Macherey Nagel™ EC 125/4 Nucleodur 100-5 C8 ec column, a mobile phase consisting of a 99.8/0.1/0.1 v/v/v water/orthosphoric acid/triethylamine and acetonitrile eluent. Detection is performed at 210 nm. […]"}, "[3]": {"assay": "Stability at room temperature", "assay_type": "physicochemical", "method": "as §1\nThe following encapsulated peptides were monitored: Pal-KTTKS, Pal-GHK, Pal-GQPR, Pal-KTFK, Pal-KMO2K, Pal-VGVAPG and Pal-PP."}, "[4]": {"assay": "Trypsin digestion: proof of encapsulation and half-life", "assay_type": "in vitro ADME", "settings": "role: substrate; 0.003% trypsin, acetate buffer pH=5, 25 °C, peptide 100 ppm; read-out: T1/2 (loss of 50% of the initial content)", "method": "The study was performed on a suspension of Pal-KTTKS encapsulated according to the invention, using trypsin, an enzyme that hydrolyses a peptide whose sequence contains the amino acid lysine. The peptide is placed in the presence of trypsin and the amount of peptide remaining, i.e. not hydrolysed by trypsin, is measured as a function of time. Only the peptide released from the capsule over time is susceptible to hydrolysis.\nAt T0, measurements make it possible to confirm that the peptide is encapsulated.\nThe kinetics will then make it possible to determine the half-life, which constitutes an indicator of the peptide's accessibility to the enzyme, and therefore an indicator of the peptide's protection by the capsule.\nTwo solutions are compared: one containing the encapsulated peptide (100 ppm) and the other the free (i.e. non-encapsulated) peptide, also at 100 ppm. Acetate buffer solution at pH=5 containing 0.003% trypsin is added. The samples are heated to 25 °C. The enzymatic reaction is stopped to perform the measurements by adding isopropyl alcohol. Peptide quantification is performed by HPLC using the method described in paragraph B 1-4 above.\nHydrolysis monitoring is performed under the chromatographic analysis conditions described in paragraph B 1-4 above."}, "[5]": {"settings": "different derivatization, peptide 100 ppm, 1 month at 40 °C"}, "[6]": {"settings": "TA1 decyl glucoside, RT, 3 months"}}, "note": "Residues, ends and D or L forms follow the SMILES beside them. No end group written: not given here. *: point of attachment. Palmitoyl = CCCCCCCCCCCCCCCC(=O)*; Lauroyl = CCCCCCCCCCCC(=O)*"}
{"compound": "CCCCCCCC(=O)N[C@H](C(=O)N[C@@H](Cc1c[nH]c2ccccc12)C(=O)O)[C@@H](C)CC", "note": "[Octanoyl-IW]", "values": [{"measurement": "Stability over time", "setting": "[1]; [5]", "result": "Yes"}]}
{"compound": "CCCCCCCCCCCC(=O)N[C@@H](CCCCN)C(=O)N[C@H](C(=O)N[C@@H](CO)C(=O)N[C@@H](CCCCN)C(=O)N[C@@H](CO)C(=O)O)[C@@H](C)O", "note": "[Lauroyl-KTSKS] (Lauroyl-KTSKS-OH)", "values": [{"measurement": "Stability over time", "setting": "[1]; [5]", "result": "Yes"}]}
{"compound": "CCCCCCCCCCCCCCCCOC(=O)[C@H](CCCNC(=N)N)NC(=O)[C@H](Cc1ccc(O)cc1)NC(C)=O", "note": "[N-Acetyl-YR-O-hexadecyl ester, Acetyl-Tyr-Arg-hexadecyl ester]", "values": [{"measurement": "D50", "setting": "[2]", "result": "D50 (μm) = 0.234"}, {"measurement": "Formation of a suspension of submicron particles", "setting": "[2]", "result": "Yes"}, {"measurement": "pH", "setting": "[2]", "result": "pH 8.70"}, {"measurement": "D50", "setting": "[1]; [5]", "result": "D50 (μm) = 0.237"}, {"measurement": "Stability over time", "setting": "[1]; [5]", "result": "Yes"}, {"measurement": "pH", "setting": "[1]; [5]", "result": "pH 8.70"}]}
{"compound": "KTTKS [H-KTTKS]", "values": [{"measurement": "Stability over time", "setting": "[1]; [5]", "result": "Yes"}]}
{"compound": "CCCCCCCCCCCCCCCC(=O)N[C@@H](CCCCN)C(=O)N[C@H](C(=O)N[C@H](C(=O)N[C@@H](CCCCN)C(=O)N[C@@H](CO)C(=O)O)[C@@H](C)O)[C@@H](C)O", "note": "[Pal-KTTKS] (Palmitoyl-KTTKS-OH)", "values": [{"measurement": "Stability over time", "setting": "[1]; [5]", "result": "Yes"}, {"measurement": "Stability over time", "setting": "[3]; 2.5% wax, RT, 6 months", "result": "Yes"}, {"measurement": "Stability over time", "setting": "[3]; 5% wax, RT, 6 months", "result": "Yes"}, {"measurement": "Stability over time", "setting": "[3]; [6]", "result": "Yes (3 months)"}, {"measurement": "Stability over time", "setting": "[3]; TA1 lauryl glucoside, RT, 12 months", "result": "Yes (12 months)"}, {"measurement": "stability duration", "setting": "[3]; room temperature, encapsulated", "result": "up to 1 year"}, {"measurement": "half-life", "setting": "[4]", "result": 1, "unit": "h"}]}
{"compound": "CCCCCCCCCCCCCCCC(=O)NCC(=O)N[C@@H](Cc1c[nH]cn1)C(=O)N[C@@H](CCCCN)C(=O)O", "note": "[Pal-GHK] (Palmitoyl-Gly-His-Lys-OH)", "values": [{"measurement": "Stability over time", "setting": "[1]; TA1 + TA2 (Lipoid P75-3), 3 months at 40 °C", "result": "Yes"}, {"measurement": "Stability over time", "setting": "[1]; TA1 only, without TA2, 3 months at 40 °C", "result": "No: Phase"}, {"measurement": "Stability over time", "setting": "[3]; 10% glycerol, 1 month", "result": "Yes"}, {"measurement": "Stability over time", "setting": "[3]; TA1 + TA2 (Lipoid P75-3), 3 months at RT", "result": "Yes"}, {"measurement": "Stability over time", "setting": "[3]; [6]", "result": "Yes (3 months)"}, {"measurement": "Stability over time", "setting": "[3]; TA1 lauryl glucoside, RT, 3 months", "result": "Yes (3 months)"}, {"measurement": "Stability over time", "setting": "[3]; TA1 only, without TA2, 3 months at RT", "result": "Yes"}, {"measurement": "Stability over time", "setting": "[3]; peptide content 100 ppm, RT, 1 month", "result": "Yes"}, {"measurement": "Stability over time", "setting": "[3]; peptide content 500 ppm, RT, 1 month", "result": "Yes"}, {"measurement": "Stability over time", "setting": "[3]; peptide content 1000 ppm, RT, 1 month", "result": "Yes"}, {"measurement": "Stability over time", "setting": "[3]; without glycerol, 1 month", "result": "Yes"}]}
